Series [1] in a line: Inhibition of human ABCG2-mediated multidrug resistance in MDCK2 cells assessed as potentiation of SN-38-induced cytotoxicity by measuring half maximal reversal concentration after 72 hrs by MTT assay.
Series [2] is described as follows: Inhibition of human ABCB1-mediated multidrug resistance in human A2780/ADR cells assessed as potentiation of doxorubicin-induced cytotoxicity by measuring half maximal reversal concentration after 72 hrs by MTT assay.
Series [3] in a line: Inhibition of human ABCC1-mediated multidrug resistance in MDCK2 cells assessed as potentiation of doxorubicin-induced cytotoxicity by measuring half maximal reversal concentration after 72 hrs by MTT assay.

Consider `Cc1cc(Nc2ccc(F)c(C#N)c2)nc(-c2ccccc2)n1`, for which the EC50 in series [1] is 21 nM.

`Cc1cc(Nc2ccc3ncccc3c2)nc(-c2ccccc2)n1`: the EC50 was 8410 nM in series [2], 5150 nM in series [3] and 16 nM in series [1]. For `Cc1cc(Nc2ccc(C#N)c(C(F)(F)F)c2)nc(-c2ccccc2)n1`, the concentration giving a half-maximal response (EC50) in series [1] amounted to 15 nM. On the same count and under the same terms, then `Cc1cc(Nc2ccc(C#N)c(Br)c2)nc(-c2ccccc2)n1`, with 15 nM; and `Cc1cc(Nc2ccc(C#N)c(C)c2)nc(-c2ccccc2)n1`, with 11 nM; and `Cc1cc(Nc2ccc([N+](=O)[O-])cc2)nc(-c2ccccc2)n1`, with 16 nM.

The values above are taken from BindingDB's records for doi:10.1021/acs.jmedchem.0c00961 (Rheinische Friedrich-Wilhelms-University Bonn, 2020).
